Measurements published in PubChem BioAssay (NCI).
“And” between values parts separate entries of the source, which are not always exact repeats. Identical values can stand only once.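 Five compound concentrations were applied to cells in 96-well plates for 48 hours; endpoints were derived by simple linear interpolation of the resulting dose-response curve. The concentration for 50% growth inhibition is given as GI50. TGI: concentration producing complete growth inhibition.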

Experiments:
Assay in all cases: inhibition of tumour cell growth, NCI panel, 48 h
KM12 colon = test system: KM12 colon
SW-620 colon = test system: SW-620 colon
CCRF-CEM leukemia = test system: CCRF-CEM leukemia
HOP-92 NSCLC = test system: HOP-92 NSCLC
RPMI-8226 leukemia = test system: RPMI-8226 leukemia
K-562 leukemia = test system: K-562 leukemia
NCI-H23 lung = test system: NCI-H23 lung
SK-OV-3 ovarian = test system: SK-OV-3 ovarian
OVCAR-8 ovarian = test system: OVCAR-8 ovarian
NCI-H522 lung = test system: NCI-H522 lung

Row | SMILES | GI50 (KM12 colon) | TGI (KM12 colon) | GI50 (SW-620 colon) | TGI (SW-620 colon) | GI50 (CCRF-CEM leukemia) | TGI (CCRF-CEM leukemia) | GI50 (HOP-92 NSCLC) | TGI (HOP-92 NSCLC) | GI50 (RPMI-8226 leukemia) | TGI (RPMI-8226 leukemia) [µM] | GI50 (K-562 leukemia) [µM] | TGI (K-562 leukemia) [µM] | GI50 (NCI-H23 lung) | TGI (NCI-H23 lung) | GI50 (SK-OV-3 ovarian) [µM] | TGI (SK-OV-3 ovarian) | GI50 (OVCAR-8 ovarian) [µM] | TGI (OVCAR-8 ovarian) | GI50 (NCI-H522 lung) [µM] | TGI (NCI-H522 lung)
1 | CC(C)=CCc1ccc(O)c(=O)cc1C(C)C | 0.641 µM | > 100 µM | 0.566 µM | > 100 µM | 0.485 µM | > 100 µM | 1.32 µM | 65.3 µM | 0.673 µM | > 91.3 | 0.466 | > 100 | 0.701 µM | > 51.3 µM | 0.903 | > 100 µM | 0.413 | > 100 µM | 1.22 | 69.9 µM
2 | COc1ccc2c(c1)C(=O)/C(=C/c1ccc([N+](=O)[O-])s1)O2 | 0.235 µM | 0.51 µM | 0.211 µM | 0.507 µM | 0.308 µM | – | 0.23 µM | 1.23 µM | 0.26 µM | 0.843 | 0.291 | 12.2 | 0.709 µM | 3.53 µM | 2.68 | 7.77 µM | 0.362 | > 100 µM | 0.195 | 0.395 µM
3 | O=C(N/N=c1/ccoc2cccnc12)N1CCN(c2ncccn2)CC1 | 0.371 µM | 10.2 µM | < 0.0131 µM | 10.6 µM | < 0.01 µM | > 54.4 µM | 0.017 µM | 2.68 µM | < 0.01 µM | 2.04 | < 0.01 | 4.82 | 0.0308 µM | 16.7 µM | 0.194 | 4.55 µM | 0.031 | 6.67 µM | 1.02 | 17.2 µM
4 | CCOC(=O)N[C@H]1CCc2cc(O)c(OC)c(OC)c2-c2ccc(SC)c(=O)cc21 | – | 0.413 µM | – | > 100 µM | – | > 13.9 µM | – | 0.0786 µM | – | > 72.6 | – | > 100 | – | 9.95 µM | – | > 8.57 µM | – | > 100 µM | – | 0.046 µM
5 | C/C=C(\CCC1NCCc2c1[nH]c1ccccc21)[Si](C)(C)C (stereo not given) | 6.18 µM and 1.9 µM | 11.3 µM and 3.64 µM | 5.29 µM and 1.92 µM | 9.63 µM and 3.63 µM | 7.18 µM and 2.17 µM | 17.2 µM and 8.44 µM | 5.2 µM and 2.56 µM | 12.3 µM and 8.5 µM | 19.8 µM and 2.36 µM | – | – | 9.29 | 7.89 µM and 1.61 µM | 20.1 µM and 8.2 µM | – | 25.2 µM and 26.5 µM | – | 19.5 µM and 8.79 µM | – | 27.9 µM and 4.96 µM
6 | c1ccc2c(Nc3ccc(Oc4ccc(Nc5c6ccccc6nc6ccccc56)cc4)cc3)c3ccccc3nc2c1 | 0.21 µM and 0.187 µM | 0.441 µM and 0.376 µM | – | 0.552 µM | 0.217 µM | 0.719 µM | 0.285 µM | 1.5 µM and 4.69 µM | 0.187 µM | 0.434 | 0.32 | 1.08 | – | 0.596 µM | – | 4.21 µM | – | 0.526 µM | 0.205 | 1.97 µM and 0.44 µM
7 | CC(C)=CC(O)C/C(C)=C/CC/C(C)=C/CCC1(C)C(CCCO)/C(=C(/C)C=O)CCC1(C)O (stereo not given) | – | 52.9 µM | – | > 100 µM | – | > 100 µM | – | > 100 µM | – | 47.2 | – | 7.94 | – | 93 µM | – | > 100 µM | – | > 100 µM | – | > 100 µM
8 | C#C[C@@]1(O)CCCC2=CC(=O)C[C@]21C | – | > 100 µM | – | > 100 µM | – | > 100 µM | – | > 100 µM | – | > 100 | – | > 100 | – | > 100 µM | – | > 100 µM | – | > 100 µM | – | > 100 µM
9 | C=C(C)[C@@H]1CC[C@]2(C(=O)O)CC[C@]3(C)[C@H](CC[C@@H]4[C@@]5(C)C[C@@H](CC#Cc6ccc(Br)cc6)C(=O)C(C)(C)[C@@H]5CC[C@]43C)[C@@H]12 | 4.54 µM | > 100 µM | 3.73 µM | > 100 µM | 3.57 µM | > 100 µM | 17 µM | 36.4 µM | 9.08 µM | > 100 | 15.6 | > 100 | 3.83 µM | 23.9 µM | 20.2 | > 100 µM | 5.84 | > 100 µM | 2.95 | 75 µM
10 | CCCCCCCCCCCCCCCCOC(=O)c1c(C)[nH]c(/C=C2\N=C(c3ccc[nH]3)C=C2OC)c1C | 0.102 µM | > 100 µM | 0.182 µM | > 100 µM | 32.9 µM | > 100 µM | 0.2 µM | 0.83 µM | 0.0958 µM | > 100 | 0.413 | > 100 | 1.15 µM | 12.7 µM | 2.35 | 5.9 µM | 0.384 | 15 µM | 5.69 | > 70.1 µM
11 | CO/N=C(\COc1ccc2c(c1)oc(=O)c1cc(OC)ccc12)c1cccc(OC)c1 | > 100 µM | > 100 µM | > 100 µM | > 100 µM | > 100 µM | > 100 µM | > 100 µM | > 100 µM | > 100 µM | > 100 | > 100 | > 100 | > 100 µM | > 100 µM | > 100 | > 100 µM | > 100 | > 100 µM | > 100 | > 100 µM
12 | COc1cc(Nc2ncc3c(C)nc(-c4cccc(Oc5ccccc5)c4)n3n2)cc(OC)c1OC | 5.95 µM | > 25 µM | 9.61 µM | > 25 µM | 3.9 µM | > 25 µM | 6.29 µM | > 24.1 µM | 6.08 µM | > 25 | 10 | > 25 | 6.68 µM | > 25 µM | 1.74 | > 25 µM | 5.15 | > 25 µM | 4.94 | > 17.9 µM
